In the oligonucleotide strings, read from the 5' end, every base follows the letter of its sugar. An asterisk marks phosphorothioate; unmarked linkages are phosphodiester. Other units and linkages are bracketed, terminal groups are in braces. A string of capitals states the bases alone. {NAG37} = N-acetyl-galactosamine tridentate targeting ligand (NAG37); [invAb] = inverted abasic unit; m = 2'-O-methyl; f = 2'-fluoro
Columns and labels:
[1] = tested on: ANGPTL3 gene; experiment: Example 10: serum HDL in mice; assay type: in vivo; conditions: 0.5 mg/kg single SC injection day 1, female C57bl/6 mice, n=3, ratio to D5W control
Procedure: (§1) To assess the in vivo activity of further ANGPTL3 RNAi agents that are designed to target position 304 on the ANGPTL3 gene, six- to eight-week-old female C57bl/6 mice were used. Pre-dose serum samples were taken at day −1 after a four hour fast. At day 1, each mouse was given a single subcutaneous administration of 200 μl containing 0.5 mg/kg (mpk) of an ANGPTL3 RNAi agent in D5W (dextrose in 5% water), or control (D5W) with no RNAi agent, according to the dosing groups recited in Table 47.
(§2) Each of the RNAi agents included a modified sequence and an N-acetyl-galactosamine-containing targeting ligand conjugated to the 5′ terminal end of the sense strand. (See Tables 3, 4, and 5 for modified sequences and targeting ligand structures). As noted above, each of the ANGPTL3 RNAi agents dosed in this study included nucleotide sequences designed to target the ANGPTL3 gene at position 304. The injections were performed between the skin and muscle (i.e. subcutaneous injections) into the loose skin over the neck and shoulder area. Three (3) mice in each group were tested (n=3). Serum was collected on days 8, 15, 22, 29, and for some groups on day 36 (i.e., Groups 1, 2, and 9-13 only). Mice were fasted for four hours prior to each collection. ANGPTL3 protein levels in serum were measured by ELISA assay (R&D Systems), according to the manufacturer's recommendations. Triglycerides, total cholesterol, high-density lipoprotein (HDL), and low-density lipoprotein (LDL) in serum were measured on a Cobas® Integra 400 (Roche Diagnostics), according to the manufacturer's recommendations.
(§3) The ANGPTL3 protein levels, triglyceride levels, total cholesterol levels, HDL levels, and LDL levels for each animal were normalized. For normalization, the level of ANGPTL3 protein, triglyceride, HDL, and total cholesterol, respectively, for each animal at a time point, was divided by the pre-treatment level of expression in that animal (in this case at day −1) to determine the ratio of expression “normalized to pre-treatment.” Expression at a specific time point was then normalized to the D5W control group by dividing the “normalized to pre-treatment” ratio for an individual animal by the mean “normalized to pretreatment” ratio of all mice in the D5W control group.

[2] = tested on: ANGPTL3 gene; experiment: Example 10: serum LDL in mice; assay type: in vivo, C57bl/6 mice; conditions: 0.5 mg/kg sc
Procedure: as §1, §2, §3

[3] = tested on: ANGPTL3 gene; experiment: Example 10: serum triglycerides in mice; assay type: in vivo; conditions: 0.5 mg/kg single SC injection day 1, female C57bl/6 mice, n=3, ratio to D5W control
Procedure: as §1, §2, §3

[4] = tested on: ANGPTL3 gene; experiment: Example 10: serum total cholesterol in mice; assay type: in vivo; conditions: 0.5 mg/kg single SC injection day 1, female C57bl/6 mice, n=3, ratio to D5W control
Procedure: as §1, §2, §3

[5] = tested on: ANGPTL3 protein; experiment: Example 10: serum ANGPTL3 protein by ELISA in mice; assay type: in vivo; conditions: 0.5 mg/kg single SC injection day 1, female C57bl/6 mice, n=3, ratio to D5W control
Procedure: as §1, §2, §3

AD05791: RNAi agent duplex: antisense AM07624-AS, sense AM07234-SS (antisense mU*fA*mCfUmGfAmUfCmAfAmAfUmAfUmGfUmUfGmA*fG*mC; sense {NAG37}*[invAb]*mGmCmUmCmAmAmCmAfUfAfUmUmUmGmAmUmCmAmGmUmA*[invAb])
Average HDL Normalized to Pre-Treatment and Control ([1]; Day 8): 0.632
Average HDL Normalized to Pre-Treatment and Control ([1]; Day 15): 0.674
Average HDL Normalized to Pre-Treatment and Control ([1]; Day 22): 0.563
Average HDL Normalized to Pre-Treatment and Control ([1]; Day 29): 0.679
Avg LDL Normalized to Pre-Treatment and Control ([2]; Day 8): 0.878
Avg LDL Normalized to Pre-Treatment and Control ([2]; Day 15): 0.744
Avg LDL Normalized to Pre-Treatment and Control ([2]; Day 22): 0.848
Avg LDL Normalized to Pre-Treatment and Control ([2]; Day 29): 0.755
Average Triglycerides Normalized to Pre-Treatmen and Control ([3]; Day 8): 1.125
Average Triglycerides Normalized to Pre-Treatmen and Control ([3]; Day 15): 0.930
Average Triglycerides Normalized to Pre-Treatmen and Control ([3]; Day 22): 1.631
Average Triglycerides Normalized to Pre-Treatmen and Control ([3]; Day 29): 0.854
Average Total Cholesterol Normalized to Pre-Treatment and Control ([4]; Day 8): 0.664
Average Total Cholesterol Normalized to Pre-Treatment and Control ([4]; Day 15): 0.694
Average Total Cholesterol Normalized to Pre-Treatment and Control ([4]; Day 22): 0.631
Average Total Cholesterol Normalized to Pre-Treatment and Control ([4]; Day 29): 0.677
Average ANGPTL3 Protein Normalized to Pre-Treatment and Control ([5]; Day 8): 0.145
Average ANGPTL3 Protein Normalized to Pre-Treatment and Control ([5]; Day 15): 0.170
Average ANGPTL3 Protein Normalized to Pre-Treatment and Control ([5]; Day 22): 0.214
Average ANGPTL3 Protein Normalized to Pre-Treatment and Control ([5]; Day 29): 0.246

— patent publication US12729377B2, “RNAi agents and compositions for inhibiting expression of angiopoietin-like 3 (ANGPTL3), and methods of use” (Arrowhead Pharmaceuticals, Inc., priority 2017, dated 2026)
